Results published in publication PMC11062899, “De novo development of small cyclic peptides that are orally bioavailable” (Nature Chemical Biology, 2023).
Several values for one entry are separate records, joined by “and”; a condition that tells them apart may be missing. Equal entries are not always repeated.

Assays:
[1] = biological target: human α-thrombin (Homo sapiens, UniProt P00734); test: Protease inhibition, Ki for human α-thrombin (fluorogenic substrate Z-Gly-Gly-Arg-AMC); assay type: biochemical; settings: replicates R1-R3
Summary of the method: (§1)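 Inhibition was measured as AMC fluorescence from 50 μM substrate, monitored for 30 min at 25 °C, relative to a peptide-free control. Human and rat enzymes were present at 2 nM and 3 nM final, respectively, in 50 mM Tris-HCl pH 7.4, 150 mM NaCl, 10 mM MgCl2, 1 mM CaCl2. Ki derives from fitted IC50 via Cheng–Prusoff.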

[2] = system: porcine pancreatin; test: Peptide stability in simulated intestinal fluid (SIF); assay type: in vitro ADME; settings: after 8 h vs 0 h (TIC); average of R1-R3
Protocol: (§2) Simulated gastric and intestinal fluids were prepared according to the States Pharmacopeia specifications (Test Solutions, United States Pharmacopeia 35, NF 30, 2012). SGF: 0.2 g of sodium chloride was dissolved in 50 ml of water, and the pH was adjusted to 1.2 by addition of 0.7 ml of 10 M hydrochloric acid. Then, 0.32 g of porcine pepsin (Sigma-Aldrich, P7125) was dissolved under gentle agitation, and the volume was filled up to 100 ml with Milli-Q water. SIF: 0.68 g of monobasic potassium phosphate was dissolved in 25 ml of Milli-Q water, and the pH was adjusted to 6.8 by adding 7.7 ml of a 0.2 M sodium hydroxide solution. Next, 1 g of porcine pancreatin (Sigma-Aldrich, P3292) was added under gentle agitation, and the volume was adjusted to 100 ml with Milli-Q water to afford a fine suspension. To test the stability in simulated gastrointestinal fluids, 396 μl of SGF or SIF was pre-heated at 37 °C for 10 min, and 4 μl of a 1 mM peptide solution in DMSO was added. […] Supernatant was analyzed by LC–MS to measure the peptide concentrations at the different timepoints. Residual peptide was calculated by normalizing the concentrations measured at T1 to T0.

[3] = as above; assay type: in vitro ADME, porcine; settings: simulated gi fluid; 8 h, 37 °C, pH 6.8; read-out: Proteolytic stability: SIF (8 h) % remaining
Protocol: as §2

[4] = biological target: T1, porcine pepsin (Sus scrofa, UniProt P00791); test: Peptide stability in simulated gastric fluid (SGF); assay type: in vitro ADME
T1 construct: 0.32 g of porcine pepsin (Sigma-Aldrich, P7125) was dissolved under gentle agitation; purchased Sigma-Aldrich P7125
Protocol: as §2

[5] = Metabolic stability in rat liver microsomes (RLMs); settings: rat, microsomes
Protocol: Metabolic stability was measured by incubating the peptides (10 μM) with RLMs. Peptides to test were dissolved in DMSO (4 mM), and 1 μl of the resulting solution was added to 365 μl of 0.1 M sodium phosphate buffer (pH 7.4). The solution was pre-warmed at 37 °C for 5 min before starting the reaction by addition of 24 μl of NADPH cofactor solution (22 mM) and 11 μl of RLMs (20 mg ml^−1 protein concentration; Thermo Fisher Scientific, RTMCPL). […] Samples were vortexed, sonicated for 5 min and centrifuged at 16,000g for 10 min. Supernatant was analyzed by LC–MS to quantify the disappearance of the compound and formation of degradation products.

[6] = biological target: T2, rat α-thrombin (Rattus norvegicus, UniProt P18292); test: Protease inhibition, Ki for rat α-thrombin (fluorogenic substrate Z-Gly-Gly-Arg-AMC); assay type: biochemical; settings: replicates R1-R3
T2 construct: rat α-thrombin (Molecular Innovations) were used at final concentrations of 2 nM and 3 nM; purchased Molecular Innovations
Summary of the method: as §1

[7] = Passive artificial membrane permeability (PAMPA)
[8] = peptide 1.33E+02 uM, slope of proteolytic substrate cleavage over time

T1 sequence (P00791 60-385): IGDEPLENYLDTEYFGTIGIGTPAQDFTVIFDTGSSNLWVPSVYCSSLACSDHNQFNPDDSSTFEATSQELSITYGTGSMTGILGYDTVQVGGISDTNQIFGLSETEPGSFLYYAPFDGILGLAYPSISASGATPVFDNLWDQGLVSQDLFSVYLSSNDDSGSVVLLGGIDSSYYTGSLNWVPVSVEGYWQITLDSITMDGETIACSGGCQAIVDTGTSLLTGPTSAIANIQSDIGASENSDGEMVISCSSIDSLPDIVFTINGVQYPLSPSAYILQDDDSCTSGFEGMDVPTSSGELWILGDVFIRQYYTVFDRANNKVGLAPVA

C[C@@H]1NC(=O)[C@@H](NC(=O)c2ccc(Cl)s2)CSCc2cccc(n2)CSCCNC(=O)[C@H]2CCCN(C2)C1=O [compound 30]
Human alpha thrombin inhibition, slope normalized to DMSO ([1]; peptide 1.02E-03 uM): 97.2 and 97.6 and 106.2
Human alpha thrombin inhibition, slope normalized to DMSO ([1]; peptide 1.04E+00 uM): 103.4 and 89.3 and 97.4
Human alpha thrombin inhibition, slope normalized to DMSO ([1]; peptide 1.27E-04 uM): 101.8 and 96.4 and 101.4
Human alpha thrombin inhibition, slope normalized to DMSO ([1]; peptide 1.30E-01 uM): 98.9 and 98.3 and 91.7
Human alpha thrombin inhibition, slope normalized to DMSO [1, 8]: 9.7 and 9.3 and 8.4
Human alpha thrombin inhibition, slope normalized to DMSO ([1]; peptide 1.63E-02 uM): 113.9 and 97.8 and 107.6
Human alpha thrombin inhibition, slope normalized to DMSO ([1]; peptide 1.67E+01 uM): 44.4 and 39.7 and 38.9
Human alpha thrombin inhibition, slope normalized to DMSO ([1]; peptide 2.03E-03 uM): 93.3 and 95.3 and 103.2
Human alpha thrombin inhibition, slope normalized to DMSO ([1]; peptide 2.08E+00 uM): 83.8 and 81.0 and 85.8
Human alpha thrombin inhibition, slope normalized to DMSO ([1]; peptide 2.54E-04 uM): 101.0 and 97.7 and 100.6
Human alpha thrombin inhibition, slope normalized to DMSO ([1]; peptide 2.60E-01 uM): 90.3 and 93.2 and 100.5
Human alpha thrombin inhibition, slope normalized to DMSO ([1]; peptide 3.18E-05 uM): 99.8 (2×) and 101.6
Human alpha thrombin inhibition, slope normalized to DMSO ([1]; peptide 3.26E-02 uM): 100.2 and 97.8 and 102.0
Human alpha thrombin inhibition, slope normalized to DMSO ([1]; peptide 3.33E+01 uM): 26.4 and 25.5 and 27.5
Human alpha thrombin inhibition, slope normalized to DMSO ([1]; peptide 4.07E-03 uM): 95.7 and 98.6 and 101.8
Human alpha thrombin inhibition, slope normalized to DMSO ([1]; peptide 4.17E+00 uM): 69.5 and 72.8 and 72.6
Human alpha thrombin inhibition, slope normalized to DMSO ([1]; peptide 5.09E-04 uM): 102.0 and 99.0 and 102.1
Human alpha thrombin inhibition, slope normalized to DMSO ([1]; peptide 5.21E-01 uM): 99.3 and 95.3 and 96.7
Human alpha thrombin inhibition, slope normalized to DMSO ([1]; peptide 6.36E-05 uM): 99.5 and 97.8 and 101.1
Human alpha thrombin inhibition, slope normalized to DMSO ([1]; peptide 6.51E-02 uM): 101.0 and 91.1 and 103.2
Human alpha thrombin inhibition, slope normalized to DMSO ([1]; peptide 6.67E+01 uM): 19.9 and 15.0 and 20.8
Human alpha thrombin inhibition, slope normalized to DMSO ([1]; peptide 8.14E-03 uM): 100.5 and 116.6 and 101.1
Human alpha thrombin inhibition, slope normalized to DMSO ([1]; peptide 8.33E+00 uM): 63.9 and 57.2 and 56.3
SIF stability, Residual peptide Average [2]: 97.68
remaining at 8 h [3]: 98 ± 11%
SGF stability, Residual peptide Average ([4]; after 8 h vs 0 h (TIC), average of R1-R3): 90.24
SGF stability, Residual peptide ([4]; after 8 h vs 0 h (TIC), single replicates R1-R3): 101.78 and 81.27 and 87.66
remaining at 8 h ([4]; simulated gi fluid, 8 h, 37 °C, pH 1.2, read-out: Proteolytic stability: SGF (8 h) % remaining): 90 ± 10%
microsomal CLint ([5]; CL (ul/min/mg protein) R1, RLM CL, replicate R1): 79.9 µL/min/mg
microsomal CLint ([5]; CL (ul/min/mg protein) R2, RLM CL, replicate R2): 59.7 µL/min/mg
microsomal CLint ([5]; CL (ul/min/mg protein) R3, RLM CL, replicate R3): 75.2 µL/min/mg
half-life ([5]; Half Life (min) R1, RLM metabolic stability, replicate R1, 0-60 min): 17.3 min
half-life ([5]; Half Life (min) R2, RLM metabolic stability, replicate R2, 0-60 min): 23.2 min
half-life ([5]; Half Life (min) R3, RLM metabolic stability, replicate R3, 0-60 min): 18.4 min
half-life ([5]; Metabolic stability: Half life T1/2 (min), RLMs, mean and SD, three measurements): 19.7 ± 2.5 min
microsomal CLint ([5]; Metabolic stability: RLM CL (ul/min/mg), RLMs, mean and SD, three measurements): 72 ± 9 µL/min/mg
Rat alpha thrombin inhibition, slope normalized to DMSO [6, 8]: 3.2 and 3.1 and 10.4
Rat alpha thrombin inhibition, slope normalized to DMSO ([6]; peptide 1.67E+01 uM): 16.1 and 15.2 and 20.3
Rat alpha thrombin inhibition, slope normalized to DMSO ([6]; peptide 2.08E+00 uM): 58.5 and 59.8 and 48.9
Rat alpha thrombin inhibition, slope normalized to DMSO ([6]; peptide 3.33E+01 uM): 8.9 (2×) and 15.3
Rat alpha thrombin inhibition, slope normalized to DMSO ([6]; peptide 4.17E+00 uM): 40.8 and 42.9 and 35.9
Rat alpha thrombin inhibition, slope normalized to DMSO ([6]; peptide 6.67E+01 uM): 5.0 and 4.9 and 12.1
Rat alpha thrombin inhibition, slope normalized to DMSO ([6]; peptide 8.33E+00 uM): 24.7 and 27.2 and 32.3
PAMPA permeability: % permeability ([7]; 50 μM, 12–18 h, acceptor concentration relative to equilibrium): 27 ± 1%
Papp at 50 μM ([7]; PAMPA, pH 7.4): 2.14 ×10⁻⁶ cm/s
Permeability% Average ([7]; PAMPA, average of R1-R3): 27.4%
Permeability% R1 ([7]; PAMPA, replicate R1, TIC of top well sample relative to sample at theoretical equilibrium): 28.09%
Permeability% R3 ([7]; PAMPA, replicate R3, TIC of top well sample relative to sample at theoretical equilibrium): 26.42%
